Assay results from patent US11254720B2, “Methods and systems for designing and/or characterizing soluble lipidated ligand agents” (Tufts Medical Center, priority 2013, dated 2022).
Where two headings read alike, the source gives them in different places. Non-standard residues stand in square brackets, D forms with d. Residues, ends and D or L forms follow the SMILES beside them. Tic = O=C(O)[C@@H]1Cc2ccccc2CN1

How the values were obtained:
Adult CD1 mice = assay: Chronic constriction injury neuropathic pain model, von Frey and acetone tests; assay type: in vivo, mouse; settings: intrathecal 100 pmol, 1 week after CCI
Excerpt: Intrathecal injection of 1-stable chem (100 pmol), 1 week after CCI, reduces CCI-induced mechanical hypersensitivity (panels A+C) and cold allodynia (panel E). Intrathecal injection of ResolvinE1 (RvE1)(100 pmol), 1 week after CCI, reduces CCI-induced mechanical hypersensitivity (panels B+D) and cold allodynia (panel F). BL=baseline before surgery.
Adult CD1 mice (male, 25-35 g) were used for behavioral studies. Mice were group-housed and kept under a 12-hour light/dark cycle. […]
Nerve injury-induced mechanical allodynia and hypersensitivity were assessed by von Frey hairs as previously described (see Xu et al., Resolvin E1 inhibits neuropathic pain and spinal cord microglial activation following peripheral nerve injury, 2013, J. Neuroimmune Pharmacol, 8: 37-41). […] The 50% paw withdrawal threshold (PWT) was determined using Dixon's up-down method. For paw withdrawal frequency (PWF), the same von Frey hair (0.16 g) was applied 10 times and the number of positive responses to the stimulations counted. A positive response was scored if the mouse sharply withdrew the paw or flinched upon removal of the stimulus. […] In brief, a drop of acetone was placed against the plantar paw of the mouse and the mouse's response monitored for the next 20 seconds. […]

CCK2R = target: T1, CCK2R (Homo sapiens, UniProt P32239); assay: Antagonist inhibition of agonist-induced CCK2R signaling (luciferase); assay type: cell-based
T1 construct: expressed in transfected cells; host or cells: HEK293
T1 sequence (P32239 1-447): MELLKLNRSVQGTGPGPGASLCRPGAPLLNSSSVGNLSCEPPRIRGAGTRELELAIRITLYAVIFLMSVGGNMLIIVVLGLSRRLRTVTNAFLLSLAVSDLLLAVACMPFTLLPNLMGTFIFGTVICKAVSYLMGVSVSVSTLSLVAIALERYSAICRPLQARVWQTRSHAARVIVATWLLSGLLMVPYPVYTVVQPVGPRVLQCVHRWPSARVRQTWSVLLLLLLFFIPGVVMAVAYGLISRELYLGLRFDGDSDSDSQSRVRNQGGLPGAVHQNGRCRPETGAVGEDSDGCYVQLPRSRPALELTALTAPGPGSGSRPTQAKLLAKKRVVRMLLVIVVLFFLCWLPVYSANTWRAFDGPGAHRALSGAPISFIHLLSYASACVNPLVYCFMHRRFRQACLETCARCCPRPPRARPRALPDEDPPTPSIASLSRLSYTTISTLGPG
Experimental: A) YM022 blocks tethered CCK4-Gly mediated CCK2R signaling. HEK293 cells were cotransfected with cDNAs encoding: CCK2R, a 5X-SRE-Luc-pest reporter gene, tCCK4-Gly (as indicated), and a β-galactosidase gene to control for transfection efficiency. Four hours following transfection, cells were with treated with increasing concentrations of YM022 for 20 hours. […] B) YM022 blocks s-CCK-4-Gly-COOH and l-CCK4-Gly-COOH mediated activation of CCK2R. HEK293 cells were transfected as indicated above. Twenty hours after transfection, cells were with treated with increasing concentrations of YM022 together with either 10 μM of l-CCK4-Gly-COOH or s-CCK4-Gly-COOH. […] Abbreviations: tCCK4-Gly, tethered glycine extended CCK4; s-CCK4-Gly-COOH, soluble glycine extended CCK4 with a C-terminal free acid; 1-CCK4-Gly-COOH, lipidated glycine extended CCK4 with a C-terminal free acid; CCK2R, cholecystokinin 2 receptor.

human CMKLR1 [1] = target: T2, human CMKLR1 (Homo sapiens, UniProt Q99788); assay: SRE-luciferase reporter gene assay in transfected HEK293 cells; settings: for Activity of membrane-tethered ligand at human CMKLR1: tethered ligand cDNA cotransfected, luciferase 24 hours after transfection
T2 sequence (Q99788 1-373): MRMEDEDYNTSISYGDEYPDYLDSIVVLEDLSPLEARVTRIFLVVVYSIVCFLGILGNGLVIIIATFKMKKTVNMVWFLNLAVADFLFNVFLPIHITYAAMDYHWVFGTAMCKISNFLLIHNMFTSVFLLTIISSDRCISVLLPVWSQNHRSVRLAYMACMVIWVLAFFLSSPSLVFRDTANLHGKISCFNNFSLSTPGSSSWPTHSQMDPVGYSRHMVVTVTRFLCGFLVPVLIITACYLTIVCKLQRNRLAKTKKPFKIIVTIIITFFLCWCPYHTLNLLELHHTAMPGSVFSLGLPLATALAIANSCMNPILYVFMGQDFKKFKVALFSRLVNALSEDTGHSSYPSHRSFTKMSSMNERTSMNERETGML
Experimental: (§1) Receptor-mediated signaling was assessed as previously described. Briefly, HEK293 cells were plated at a density of 6,000 cells/well into 96-well clear-bottom plates and grown to ˜80% confluence. […] Expression of Gq5i66V directs signaling of the Gαi-coupled chemerin receptor to stimulation of a Gαq-dependent SRE5x-Luc-PEST reporter gene. For experiments investigating the agonist function of soluble and lipidated peptides, tethered ligand cDNA was not included in the transfection mixture. Twenty four hours after transfection, cells were stimulated with or without peptide agonist for 4 hours in serum-free medium. […] Following ligand stimulation, the media was aspirated and luciferase activity measured using SteadyLite reagent and quantified using a TopCount NTX. A β-galactosidase assay was then performed following assessment of luminescence. Cleavage of 2-nitrophenyl β-D-galactopyranoside substrate was quantified after incubation of cell lysates at 37° C. for 30 to 60 minutes by measuring the optical density at 420 nm on a SpectraMax microplate reader. Luciferase reporter gene activities were normalized to corresponding β-galactosidase activity controls.
(§2) HEK293 cells were transiently transfected with cDNAs encoding i) human or mouse CMKLR1, ii) a SRE5x-Luc reporter gene, iii) a Gαq5i66V chimera, and iv) a β-galactosidase control. Twenty-four hours after transfection, cells were stimulated with ligand for 4 hours and luciferase activity determined as described in Experimental Procedures. Luciferase activity was normalized relative to the maximal value observed using saturating concentrations of the corresponding soluble ligand (=100%). […] As a next step, the effect of membrane anchoring on chemerin activity was examined. […] HEK293 cells were transiently transfected with cDNAs encoding i) various tethered ligands, ii) human or mouse CMKLR1, iii) a SRE5x-Luc reporter gene, iv) aGαq5i66V chimera, and v) a β-galactosidase control. Twenty-four hours after transfection, luciferase activity was determined as described in Experimental Procedures.
(§3) HEK293 cells were transiently transfected with cDNAs encoding i) 8 ng of various tethered ligands, ii) human or mouse CMKLR1, iii) a SRE5x-Luc reporter gene, iv) a Gαq5i66V chimera, and v) a β-galactosidase control. Twenty-four hours after transfection, luciferase activity was determined as described in Experimental Procedures.

mouse CMKLR1 [2] = target: T3, mouse CMKLR1 (Mus musculus, UniProt P97468); assay: as above; settings: for Activity of membrane-tethered ligand at mouse CMKLR1: tethered ligand cDNA cotransfected, luciferase 24 hours after transfection
T3 sequence (P97468 1-371): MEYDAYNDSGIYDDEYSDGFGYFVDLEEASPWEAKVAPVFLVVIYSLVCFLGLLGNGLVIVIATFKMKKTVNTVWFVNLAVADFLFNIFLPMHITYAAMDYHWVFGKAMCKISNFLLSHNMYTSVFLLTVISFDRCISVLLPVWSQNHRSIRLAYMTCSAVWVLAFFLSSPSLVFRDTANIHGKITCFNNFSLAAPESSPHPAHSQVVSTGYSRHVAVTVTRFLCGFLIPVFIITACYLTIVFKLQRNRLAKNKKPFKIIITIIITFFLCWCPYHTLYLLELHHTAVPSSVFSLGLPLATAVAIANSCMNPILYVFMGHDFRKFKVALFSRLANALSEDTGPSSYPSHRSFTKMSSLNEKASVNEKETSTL
Experimental: as §1, §2, §3

[3] = tested on: HEK293 cells transfected with vector control (pcDNA1.1); assay: Luciferase reporter assay in cells transfected with vector control; assay type: cell-based, human; settings: cells transfected with pcDNA1.1 vector control
Experimental: as §1

mouse CMKLR1 [4] = target: T3, mouse CMKLR1; assay: Washout experiments (serial washes after 15 min ligand, luciferase readout); settings: three washes after 15 min ligand
Experimental: (§4) Agonist activity was compared with and without serial washings shortly after addition of ligand. Briefly, HEK293 cells were plated and transfected as described above with the addition of a poly-L-lysine plate pretreatment step to enhance cell adhesion. Twenty-four hours after transfection, cells were stimulated with increasing concentrations of agonist for 15 minutes at 37° C. Selected wells were washed three times with serum-free media. Plates were then incubated for an additional 4 hours. Receptor mediated signaling was assessed using a luciferase based assay as described above.
(§5) HEK293 cells were transiently transfected with cDNAs encoding i) human or mouse CMKLR1, ii) a SRE5x-Luc reporter gene, iii) a Gαq5i66V chimera, and iv) a β-galactosidase control. Twenty-four hours after transfection, cells were stimulated with increasing concentrations of various ligands for 15 minutes. Selected wells were then washed three times with serum-free media and plates were further incubated for 4 hours.

human CMKLR1 [5] = target: T2, human CMKLR1; assay: as above; settings: three washes after 15 min ligand
Experimental: as §4, §5

CC[C@@H](O)/C=C/C=C\C[C@@H](O)/C=C/C=C/C=C\[C@@H](O)CCCC(=O)O [RvE1, reference compound]
Time point at which a significant decrease in pain scores was observed (Adult CD1 mice): 1 h

Cc1cccc(NC(=O)N[C@@H]2N=C(c3ccccc3)c3ccccc3N(CC(=O)c3ccccc3C)C2=O)c1 [YM022]
IC50 (CCK2R; agonist l-CCK4-Gly-COOH 10 μM, 4 hours, read-out: IC50 for inhibition of l-CCK4-Gly-COOH induced CCK2R signaling): 10.2 nM | IC50 (CCK2R; agonist s-CCK4-Gly-COOH 10 μM, 4 hours, read-out: IC50 for inhibition of s-CCK4-Gly-COOH induced CCK2R signaling): 0.84 nM | IC50 (CCK2R; agonist tCCK4-Gly (tethered), antagonist 20 hours, read-out: IC50 for inhibition of tCCK4-Gly induced CCK2R signaling): 0.54 nM

CC(C)C[C@H](NC(=O)[C@H](Cc1ccccc1)NC(=O)[C@H](N)Cc1ccc(O)cc1)C(=O)N1CCC[C@H]1C(=O)N[C@H](CO)C(=O)N[C@@H](CCC(N)=O)C(=O)N[C@@H](Cc1ccccc1)C(=O)N[C@H](C)C(=O)N1Cc2ccccc2C[C@H]1C(=O)N[C@@H](CO)C(=O)O [s-Stable Chem, reference compound] (H-[dY]FLP[dS]QF[dA][Tic]S-OH)
EC50 (human CMKLR1 [1]; pEC50, Human CMKLR1, no wash, mean ± S.E.M.): 61.7 nM | EC50 (mouse CMKLR1 [2]; pEC50, Mouse CMKLR1, no wash, mean ± S.E.M.): 12 nM | Agonist activity without CMKLR1 expression [3]: no agonist activity | Agonist activity after serial washes, mouse CMKLR1 (mouse CMKLR1 [4]): rapidly decreased | Agonist activity after serial washes, human CMKLR1 (human CMKLR1 [5]): rapidly decreased

tChem 149-157: membrane-tethered C-terminal chemerin peptide (amino acids 149-157), endogenous sequence ending phenylalanine-serine (MSTSMIRDVELAEEALPKKTGGPQGSRRCLFSLFIVAGATTLFCLLHFGVIYFPGQFAFS; left off: small tags and cut ends)
Activity of membrane-tethered ligand at human CMKLR1 (human CMKLR1 [1]): activated | Activity of membrane-tethered ligand at human CMKLR1 (human CMKLR1 [1]; listed as FS): comparable activity | Activity of membrane-tethered ligand at mouse CMKLR1 (mouse CMKLR1 [2]): activated

B1: tChem 21-157: membrane-tethered full length chemerin (amino acids 21-157) (protein)
chain: MSTSMIRDVELAEEALPKKTGGPQGSRRCLFSLFIVAGATTLFCLLHFGVIELTEAQRRGLQVALEEFHKHPPVQWAFQETSVESAVDTPFPAGIFVRLEFKLQQTSCRKRDWKKPECKVRPNGRKRKCLACIKLGSEDKVLGRLVHCPIETQVLREAEEHQETQCLRVQRAGEDPHSFYFPGQFAFS
modifications: left off: small tags and cut ends
Activity of membrane-tethered ligand at human CMKLR1 (human CMKLR1 [1]): activated | Activity of membrane-tethered ligand at mouse CMKLR1 (mouse CMKLR1 [2]): activated

B2: tGalanin: negative control membrane-tethered ligand with the amino acid sequence of human galanin (protein)
chain: MSTSMIRDVELAEEALPKKTGGPQGSRRCLFSLFIVAGATTLFCLLHFGVIGWTLNSAGYLLGPHAVGNHRSFSDKNGLTS
modifications: left off: small tags and cut ends
Activity of membrane-tethered ligand at human CMKLR1 (human CMKLR1 [1]): lack activity | Activity of membrane-tethered ligand at mouse CMKLR1 (mouse CMKLR1 [2]): lack activity

B3: tChem 1-163: membrane-tethered ligand encoding pre-prochemerin (amino acids 1-163), TNFα transmembrane domain (protein)
chain: MSTSMIRDVELAEEALPKKTGGPQGSRRCLFSLFIVAGATTLFCLLHFGVIMRRLLIPLALWLGAVGVGVAELTEAQRRGLQVALEEFHKHPPVQWAFQETSVESAVDTPFPAGIFVRLEFKLQQTSCRKRDWKKPECKVRPNGRKRKCLACIKLGSEDKVLGRLVHCPIETQVLREAEEHQETQCLRVQRAGEDPHSFYFPGQFAFSKALPRS
modifications: left off: small tags and cut ends
Activity of membrane-tethered ligand at human CMKLR1 (human CMKLR1 [1]): lack activity | Activity of membrane-tethered ligand at mouse CMKLR1 (mouse CMKLR1 [2]): lack activity
